Experimental data published in patent publication US9694016B2 (Novartis AG, priority 2013, dated 2017).

Molecular target: b-Raf (V600E) (Homo sapiens (Human), UniProt P15056, V600E)
Conditions: read-out: b-Raf IC-50; AlphaScreen, 60 min pre-incubation, reaction 3 hours at room temperature

b-Raf (V600E), sequence (P15056 whole entry V600E): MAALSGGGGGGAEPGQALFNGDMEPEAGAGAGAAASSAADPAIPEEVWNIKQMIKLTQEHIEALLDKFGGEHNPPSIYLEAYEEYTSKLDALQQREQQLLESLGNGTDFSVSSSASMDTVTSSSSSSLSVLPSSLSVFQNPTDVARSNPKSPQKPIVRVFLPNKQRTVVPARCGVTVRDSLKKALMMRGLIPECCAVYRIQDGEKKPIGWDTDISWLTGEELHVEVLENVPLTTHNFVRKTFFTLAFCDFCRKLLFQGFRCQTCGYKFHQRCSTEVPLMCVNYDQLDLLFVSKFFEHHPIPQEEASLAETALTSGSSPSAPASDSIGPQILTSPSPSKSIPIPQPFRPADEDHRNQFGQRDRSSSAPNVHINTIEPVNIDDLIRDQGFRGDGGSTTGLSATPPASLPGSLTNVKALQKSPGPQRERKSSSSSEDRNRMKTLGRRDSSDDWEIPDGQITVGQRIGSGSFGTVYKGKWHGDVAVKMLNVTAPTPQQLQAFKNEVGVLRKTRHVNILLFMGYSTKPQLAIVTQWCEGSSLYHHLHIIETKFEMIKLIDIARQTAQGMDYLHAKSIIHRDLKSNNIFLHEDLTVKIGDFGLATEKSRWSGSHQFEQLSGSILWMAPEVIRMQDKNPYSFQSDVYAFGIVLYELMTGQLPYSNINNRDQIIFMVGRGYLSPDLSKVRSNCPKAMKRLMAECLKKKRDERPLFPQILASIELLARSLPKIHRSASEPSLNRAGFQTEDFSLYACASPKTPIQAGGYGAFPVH

Point of comparison: `Cc1ncc(NC(=O)c2cccc(C(F)(F)F)c2)cc1-c1cnc(OCC2COCCO2)c(N2CCOCC2)c1` (stereo not shown) [Example 992], IC50 1.63 nM. Against it:
- Cc1ncc(NC(=O)c2ccnc(C(C)(C)O)c2)cc1-c1cnc(OC(C)C)c(N2CCOCC2)c1 [Example 955, 2-(2-hydroxypropan-2-yl)-N-(6′-isopropoxy-2-methyl-5′-morpholino-[3,3′-bipyridin]-5-yl)isonicotinamide] — 11-fold higher, 18.1 nM
- Cc1ncc(NC(=O)c2cc(C(C)(F)F)ccn2)cc1-c1cnc(OC(C)C)c(N2CCOCC2)c1 [Example 956, 4-(1,1-difluoroethyl)-N-(6′-isopropoxy-2-methyl-5-morpholino-[3,3′-bipyridin]-5-yl)picolinamide] — 1.8-fold higher, 2.94 nM
- Cc1ncc(NC(=O)c2cc(C(C)(C)F)ccn2)cc1-c1cnc(OC(C)C)c(N2CCOCC2)c1 [Example 957, 4-(2-fluoropropan-2-yl)-N-(6′-isopropoxy-2-methyl-5′-morpholino-[3,3′-bipyridin]-5-yl)picolinamide] — 3.8-fold higher, 6.23 nM
- Cc1ncc(NC(=O)c2cc(C(C)(C)C#N)ccn2)cc1-c1cnc(OC(C)C)c(N2CCOCC2)c1 [Example 958, 4-(2-cyanopropan-2-yl)-N-(6′-isopropoxy-2-methyl-5′-morpholino-[3,3′-bipyridin]-5-yl)picolinamide] — 5.6-fold higher, 9.15 nM
- Cc1ncc(NC(=O)c2cncc(C(F)(F)F)c2)cc1-c1cnc(OC(C)C)c(N2CCOCC2)c1 [Example 960, N-(6′-isopropoxy-2-methyl-5′-morpholino-[3,3′-bipyridin]-5-yl)-5-(trifluoromethyl)nicotinamide] — 1.6-fold higher, 2.66 nM
- CCOc1ncc(-c2cc(C(=O)Nc3cc(C(F)(F)F)ncc3F)ccc2C)cc1N1CCOCC1 [Example 961, 3-(6-ethoxy-5-morpholinopyridin-3-yl)-N-(5-fluoro-2-(trifluoromethyl)pyridin-4-yl)-4-methylbenzamide] — within 1.5-fold, 1.83 nM
- Cc1ncc(NC(=O)c2cnnc(C(C)(C)C#N)c2)cc1-c1cnc(OCC(F)F)c(N2CCOCC2)c1 [Example 962, 6-(2-cyanopropan-2-yl)-N-(6′-(2,2-difluoroethoxy)-2-methyl-5′-morpholino-[3,3′-bipyridin]-5-yl)pyridazine-4-carboxamide] — 9.4-fold higher, 15.4 nM
- Cc1ncc(NC(=O)c2ccnc(C(C)(C)F)c2)cc1-c1cnc(OC2CC3(COC3)C2)c(N2CCOCC2)c1 [Example 963, N-(6′-(2-oxaspiro[3.3]heptan-6-yloxy)-2-methyl-5′-morpholino-[3,3′-bipyridin]-5-yl)-2-(2-fluoropropan-2-yl)isonicotinamide] — 1.8-fold higher, 2.88 nM
- Cc1ncc(NC(=O)c2ccnc(C(C)(C)O)c2)cc1-c1cnc(OC2CC3(COC3)C2)c(N2CCOCC2)c1 [Example 964, N-(6′-(2-oxaspiro[3.3]heptan-6-yloxy)-2-methyl-5′-morpholino-[3,3′-bipyridin]-5-yl)-2-(2-hydroxypropan-2-yl)isonicotinamide] — 5-fold higher, 8.13 nM
- Cc1ncc(NC(=O)c2ccnc(C3CC3)c2)cc1-c1cnc(OC2CC3(COC3)C2)c(N2CCOCC2)c1 [Example 966, N-(6′-(2-oxaspiro[3.3]heptan-6-yloxy)-2-methyl-5′-morpholino-[3,3′-bipyridin]-5-yl)-2-cyclopropylisonicotinamide] — within 1.5-fold, 1.35 nM
- Cc1ncc(NC(=O)c2ccnc(C(C)(C)C#N)c2)cc1-c1cnc(OC2CC3(COC3)C2)c(N2CCOCC2)c1 [Example 967, N-(6′-(2-oxaspiro[3.3]heptan-6-yloxy)-2-methyl-5′-morpholino-[3,3′-bipyridin]-5-yl)-2-(2-cyanopropan-2-yl)isonicotinamide] — 3.5-fold higher, 5.74 nM
- Cc1ncc(NC(=O)c2cc(C(C)(C)F)ccn2)cc1-c1cnc(OC2CC3(COC3)C2)c(N2CCOCC2)c1 [Example 968, N-(6′-(2-oxaspiro[3.3]heptan-6-yloxy)-2-methyl-5′-morpholino-[3,3′-bipyridin]-5-yl)-4-(2-fluoropropan-2-yl)picolinamide] — 2.3-fold higher, 3.72 nM
- Cc1ncc(NC(=O)c2cc(C(C)(C)O)ccn2)cc1-c1cnc(OC2CC3(COC3)C2)c(N2CCOCC2)c1 [Example 969, N-(6′-(2-oxaspiro[3.3]heptan-6-yloxy)-2-methyl-5′-morpholino-[3,3′-bipyridin]-5-yl)-4-(2-hydroxypropan-2-yl)picolinamide] — 11-fold higher, 18 nM
- Cc1ncc(NC(=O)c2cc(C(C)(C)C#N)ccn2)cc1-c1cnc(OC2CC3(COC3)C2)c(N2CCOCC2)c1 [Example 970, N-(6′-(2-oxaspiro[3.3]heptan-6-yloxy)-2-methyl-5′-morpholino-[3,3′-bipyridin]-5-yl)-4-(2-cyanopropan-2-yl)picolinamide] — 5.4-fold higher, 8.79 nM
- Cc1ncc(NC(=O)c2cc(C(C)(C)F)ccn2)cc1-c1cnc(OCCO)c(N2CCOCC2)c1 [Example 971, 4-(2-fluoropropan-2-yl)-N-(6′-(2-hydroxyethoxy)-2-methyl-5-morpholino-[3,3′-bipyridin]-5-yl)picolinamide] — 5.1-fold higher, 8.27 nM
- Cc1ncc(NC(=O)c2cc(C(C)(C)O)ccn2)cc1-c1cnc(OCCO)c(N2CCOCC2)c1 [Example 972, N-(6′-(2-hydroxyethoxy)-2-methyl-5-morpholino-[3,3′-bipyridin]-5-yl)-4-(2-hydroxypropan-2-yl)picolinamide] — 23-fold higher, 37 nM
- Cc1ncc(NC(=O)c2cc(C(C)(C)C#N)ccn2)cc1-c1cnc(OCCO)c(N2CCOCC2)c1 [Example 973, 4-(2-cyanopropan-2-yl)-N-(6′-(2-hydroxyethoxy)-2-methyl-5′-morpholino-[3,3′-bipyridin]-5-yl)picolinamide] — 9.7-fold higher, 15.8 nM
- Cc1ncc(NC(=O)c2cc(C(C)(F)F)ccn2)cc1-c1cnc(OCCO)c(N2CCOCC2)c1 [Example 974, 4-(1,1-difluoroethyl)-N-(6′-(2-hydroxyethoxy)-2-methyl-5-morpholino-[3,3′-bipyridin]-5-yl)picolinamide] — 1.7-fold higher, 2.78 nM
- CCOc1ncc(-c2cc(NC(=O)c3cccc(S(C)(=N)=O)c3)ccc2C)cc1N1CCOCC1 (stereo not shown) [Example 975, N-(3-(6-ethoxy-5-morpholinopyridin-3-yl)-4-methylphenyl)-3-(S-methylsulfonimidoyl)benzamide] — within 1.5-fold, 1.81 nM
- Cc1ncc(NC(=O)c2cccc(C(O)C(F)(F)F)c2)cc1-c1cnc(OC2CCOCC2)c(N2CCOCC2)c1 (stereo not shown) [Example 977, N-(2-methyl-5′-morpholino-6′-((tetrahydro-2H-pyran-4-yl)oxy)[3,3′-bipyridin]-5-yl)-3-(2,2,2-trifluoro-1-hydroxyethyl)benzamide] — 2.6-fold higher, 4.21 nM
- Cc1ncc(NC(=O)c2ccnc(C(F)(F)F)c2)cc1-c1cnc(OC(F)F)c(N2CCOCC2)c1 [Example 978] — within 1.5-fold, 1.86 nM
- Cc1ncc(NC(=O)c2ccnc(C(C)(C)O)c2)cc1-c1cnc(OC(F)F)c(N2CCOCC2)c1 [Example 979, N-(6′-(difluoromethoxy)-2-methyl-5′-morpholino-[3,3′-bipyridin]-5-yl)-2-(2-hydroxypropan-2-yl)isonicotinamide] — 8.3-fold higher, 13.6 nM
- Cc1ncc(NC(=O)c2ccnc(C(C)(F)F)c2)cc1-c1cnc(OC(F)F)c(N2CCOCC2)c1 [Example 980, 2-(1,1-difluoroethyl)-N-(6′-(difluoromethoxy)-2-methyl-5′-morpholino-[3,3′-bipyridin]-5-yl)isonicotinamide] — within 1.5-fold, 1.99 nM
- Cc1ncc(NC(=O)c2cc(C(C)(C)C#N)ccn2)cc1-c1cnc(OC(F)F)c(N2CCOCC2)c1 [Example 981, 4-(2-cyanopropan-2-yl)-N-(6′-(difluoromethoxy)-2-methyl-5′-morpholino-[3,3′-bipyridin]-5-yl)picolinamide] — 4.7-fold higher, 7.65 nM
- Cc1ncc(NC(=O)c2ccnc(C(F)F)c2)cc1-c1cnc(OC(F)F)c(N2CCOCC2)c1 [Example 982, N-(6′-(difluoromethoxy)-2-methyl-5′-morpholino-[3,3′-bipyridin]-5-yl)-2-(difluoromethyl)isonicotinamide] — within 1.5-fold, 2.44 nM
- CCC(F)(F)c1cc(C(=O)Nc2cnc(C)c(-c3cnc(OC(F)F)c(N4CCOCC4)c3)c2)ccn1 [Example 983, N-(6′-(difluoromethoxy)-2-methyl-5-morpholino-[3,3′-bipyridin]-5-yl)-2-(1,1-difluoropropyl)isonicotinamide] — 1.8-fold higher, 2.99 nM
- Cc1ncc(NC(=O)c2cccc(C(F)(F)F)c2)cc1-c1cnc(OC[C@@H](C)O)c(N2CCOCC2)c1 [Example 984, (R)—N-(6′-(2-hydroxypropoxy)-2-methyl-5′-morpholino-[3,3′-bipyridin]-5-yl)-3-(trifluoromethyl)benzamide] — within 1.5-fold, 2.28 nM
- Cc1ncc(NC(=O)c2cccc(C(F)(F)F)c2)cc1-c1cnc(O[C@@H](C)CO)c(N2CCOCC2)c1 [Example 985, (S)—N-(6′-((1-hydroxypropan-2-yl)oxy)-2-methyl-5′-morpholino-[3,3′-bipyridin]-5-yl)-3-(trifluoromethyl)benzamide] — within 1.5-fold, 2.01 nM
- Cc1ncc(NC(=O)c2cccc(C(F)(F)F)c2)cc1-c1cnc(N(C)CCO)c(N2CCOCC2)c1 [Example 986, N-(6′-((2-hydroxyethyl)(methyl)amino)-2-methyl-5′-morpholino-[3,3′-bipyridin]-5-yl)-3-(trifluoromethyl)benzamide] — 2-fold lower, 0.83 nM
- CNC(=O)c1ncc(-c2cc(NC(=O)c3ccnc(C(C)(F)F)c3)ccc2C)cc1N1CCOCC1 [Example 987, 5-(5-(2-(1,1-difluoroethyl)isonicotinamido)-2-methylphenyl)-N-methyl-3-morpholinopicolinamide] — 1.6-fold higher, 2.63 nM
- Cc1ccc(NC(=O)c2ccnc(S(C)(=O)=O)c2)cc1-c1cnc(OC[C@H](C)O)c(N2CCOCC2)c1 [Example 989, (S)—N-(3-(6-(2-hydroxypropoxy)-5-morpholinopyridin-3-yl)-4-methylphenyl)-2-(methylsulfonyl)isonicotinamide] — within 1.5-fold, 1.96 nM
- Cc1ncc(NC(=O)c2ccnc(C(C)(C)F)c2)cc1-c1cnc(OC[C@H](C)O)c(N2CCOCC2)c1 [Example 990, (S)-2-(2-fluoropropan-2-yl)-N-(6′-(2-hydroxypropoxy)-2-methyl-5-morpholino-[3,3′-bipyridin]-5-yl)isonicotinamide] — 3.3-fold higher, 5.41 nM
- Cc1ccc(NC(=O)c2ccnc(C(F)(F)F)c2)cc1-c1cc(NC[C@@H](C)O)nc(N2CCOCC2)c1 [Example 991, (R)—N-(3-(2-((2-hydroxypropyl)amino)-6-morpholinopyridin-4-yl)-4-methylphenyl)-2-(trifluoromethyl)isonicotinamide] — within 1.5-fold, 2.36 nM
